Data published in patent US7902354B2, “Lapachone compounds and methods of use thereof” (ArQule, Inc., priority 2006, dated 2011).

Assays:
Type in all cases: cell-based
[1] = test system: A549 human lung carcinoma cells; assay: MTS cell viability assay, A549 human lung carcinoma cells; details: A549, 4 h compound incubation, MTS, read-out: IC50 Values, Cancerous Cells, Lung A549
[2] = test system: DLD-1 human colon carcinoma cells; assay: MTS cell viability assay, DLD-1 human colon carcinoma cells; details: DLD-1, 4 h compound incubation, MTS, read-out: IC50 Values, Cancerous Cells, Colon DLD-1
[3] = test system: DU-145 human prostate carcinoma cells; assay: MTS cell viability assay, DU-145 human prostate carcinoma cells; details: DU-145, 4 h compound incubation, MTS, read-out: IC50 Values, Cancerous Cells, Prostate DU-145
[4] = test system: K-562 human leukemia cells; assay: MTS cell viability assay, K-562 human leukemia cells; details: K562, K-562, 4 h compound incubation, MTS, read-out: IC50 Values, Cancerous Cells, Leukemia K-562
[5] = test system: PACA-2 human pancreatic carcinoma cells; assay: MTS cell viability assay, PACA-2 human pancreatic carcinoma cells; details: PACA-2, 4 h compound incubation, MTS, read-out: IC50 Values, Cancerous Cells, Pancreas PACA-2
[6] = test system: NCM-460 normal colon epithelial cells; assay: MTS cell viability assay, NCM-460 normal colon epithelial cells; details: for IC50: Homo sapiens, NCM460, NCM-460, 4 h compound incubation, MTS, read-out: IC50 Values, Normal Cells, Colon NCM-460; for Fold Selectivity (NCM-460/DLD1): ratio of IC50 NCM-460 / DLD1

SMILES | IC50 [1] [µM] | IC50 [2] [µM] | IC50 [3] [µM] | IC50 [4] [µM] | IC50 [5] [µM] | IC50 [6] [µM] | Fold Selectivity (NCM-460/DLD1) [6]
O=C1C(=O)c2ccccc2C2=C1SCC1(CCN(C(=O)c3cccc(C(F)(F)F)c3)CC1)O2 [Compound 54, 1′-[3-(trifluoromethyl)benzoyl]spiro[naphtho 1,2-b][1,4]oxathiine-2,4′-piperidine-5,6-dione] | 7.57 | 1.49 | 1.91 | 1.74 | 1.33 | 11 | 7.4
O=C1C(=O)c2ccccc2C2=C1SCC1(CCN(C(=O)c3ccncc3)CC1)O2 [Compound 57, 1′-isonicotinoylspiro[naphtho[1,2-b][1,4]oxathiine-2,4′-piperidine]-5,6-dione] | 24.8 | 4.29 | 12.2 | 4.37 | 5.36 | 9.91 | 2.3
Cc1nn(-c2ccccc2)nc1C(=O)N1CCC2(CC1)CSC1=C(O2)c2ccccc2C(=O)C1=O [Compound 58, 1′-[(5-methyl-2-phenyl-2H-1,2,3-triazol-4-yl)carbonyl]spiro[naphtho[1,2-b][1,4]oxathiine-2,4′-piperidine]-5,6-dione] | 42.2 | 13.7 | 12.2 | 14.2 | 11 | 79.9 | 5.8
O=C1C(=O)c2ccccc2C2=C1SCC1(CCN(C(=O)c3cccnc3)CC1)O2 [Compound 59, 1′-(pyridin-3-ylcarbonyl)spiro[naphtho[1,2-b][1,4]oxathiine-2,4′-piperidine]-5,6-dione] | 16.8 | 4.1 | 10.4 | 4.24 | 4.24 | 10.7 | 2.6
Cc1cccc(C(=O)N2CCC3(CC2)CSC2=C(O3)c3ccccc3C(=O)C2=O)c1 [Compound 60, 1′-(3-methylbenzoyl)spiro[naphtho[1,2-b][1,4]oxathiine-2,4′-piperidine]-5,6-dione] | 8.59 | 2.21 | 4.16 | 3.38 | 2.39 | 10.5 | 4.8
CS(=O)(=O)N1CCC2(CC1)CSC1=C(O2)c2ccccc2C(=O)C1=O [Compound 75, 1′-(methylsulfonyl)spiro[naphtho[1,2-b][1,4]oxathiine-2,4′-piperidine]-5,6-dione] | 19.4 | 4.45 | 7.82 | 2.93 | 4.02 | 9.56 | 2.1
O=C1C(=O)c2ccccc2C2=C1SCC1(CCN(S(=O)(=O)c3ccc(Cl)c(Cl)c3)CC1)O2 [Compound 76, 1′-[(3,4-dichlorophenyl)sulfonyl]spiro[naphtho[1,2-b][1,4]oxathiine-2,4′-piperidine]-5,6-dione] | > 100 | 27.1 | 28 | > 33.3 | 14.3 | 100 | 3.7
O=C1C(=O)c2ccccc2C2=C1SCC1(CCN(S(=O)(=O)c3c(Cl)nc4sccn34)CC1)O2 [Compound 77, 1′-[(6-chloroimidazo[2,1-b][1,3]thiazol-5-yl)sulfonyl]spiro[naphtho[1,2-b][1,4]oxathiine-2,4′-piperidine]-5,6-dione] | > 100 | 20.6 | 49.2 | 22.9 | 16.1 | 76.4 | 3.7
O=C1C(=O)c2ccccc2C2=C1SCC1(CCN(S(=O)(=O)c3cccs3)CC1)O2 [Compound 78, 1′-(2-thienylsulfonyl)spiro[naphtho[1,2-b][1,4]oxathiine-2,4′-piperidine]-5,6-dione] | 46.7 | 11.1 | 12.7 | 14.7 | 11.1 | 30 | 2.7
Cn1cnc(S(=O)(=O)N2CCC3(CC2)CSC2=C(O3)c3ccccc3C(=O)C2=O)c1 [Compound 79, 1′-[(1-methyl-1H-imidazol-4-yl)sulfonyl]spiro[naphtho[1,2-b][1,4]oxathiine-2,4′-piperidine]-5,6-dione] | 23.5 | 8.26 | 11.9 | 5.92 | 7.26 | 20.5 | 2.5
Cc1nn(C)c(C)c1S(=O)(=O)N1CCC2(CC1)CSC1=C(O2)c2ccccc2C(=O)C1=O [Compound 80, 1′-[(1,3,5-trimethyl-1H-pyrazol-4-yl)sulfonyl]spiro[naphtho[1,2-b][1,4]oxathiine-2,4′-piperidine]-5,6-dione] | 18.3 | 3.53 | 4.25 | 3.81 | 3.35 | 12.9 | 3.7
Cc1nn(C)c(Cl)c1S(=O)(=O)N1CCC2(CC1)CSC1=C(O2)c2ccccc2C(=O)C1=O [Compound 81, 1′-[(5-chloro-1,3-dimethyl-1H-pyrazol-4-yl)sulfonyl]spiro[naphtho[1,2-b][1,4]oxathiine-2,4′-piperidine]-5,6-dione] | > 100 | 12.3 | 13.7 | 12.3 | 12.1 | 30.2 | 2.5
O=C1C(=O)c2ccccc2C2=C1SCC1(CCN(S(=O)(=O)c3cccc(Cl)c3)CC1)O2 [Compound 82, 1′-[(3-chlorophenyl)sulfonyl]spiro[naphtho[1,2-b][1,4]oxathiine-2,4′-piperidine]-5,6-dione] | 15.3 | 8.88 | 7.88 | 10 | 4.59 | 21.1 | 2.4

Now from value to molecule, other results behind:

IC50 [1] [µM] | IC50 [2] [µM] | IC50 [3] [µM] | IC50 [4] [µM] | IC50 [5] [µM] | SMILES | IC50 [6] [µM] | Fold Selectivity (NCM-460/DLD1) [6]
16.9 | 4.69 | 10.3 | 6.83 | 6.38 | O=C1C(=O)c2ccccc2C2=C1SCC1(CCN(C(=O)Nc3ccccc3)CC1)O2 [Compound 84, 5,6-dioxo-N-phenyl-5,6-dihydro-1′H-spiro[naphtho[1,2-b][1,4]oxathiine-2,4′-piperidine]-1′-carboxamide] | 19.1 | 4.1
6.38 | 1.29 | 1.88 | 1.32 | 1.14 | O=C1C(=O)c2ccccc2C2=C1SCC1(CCN(C(=O)Nc3ccc(F)cc3)CC1)O2 [Compound 85, N-(4-fluorophenyl)-5,6-dioxo-5,6-dihydro-1′H-spiro[naphtho[1,2-b][1,4]oxathiine-2,4′-piperidine]-1′-carboxamide] | 3.31 | 2.6
3.84 | 1.48 | 1.03 | 2.17 | 1.33 | O=C1C(=O)c2ccccc2C2=C1SCC1(CCN(C(=O)Nc3cccc(C(F)(F)F)c3)CC1)O2 [Compound 86, 5,6-dioxo-N-[3-(trifluoromethyl)phenyl]-5,6-dihydro-1′H-spiro[naphtho[1,2-b][1,4]oxathiine-2,4′-piperidine]-1′-carboxamide] | 10.1 | 6.8
3.31 | 3.04 | 0.888 | 3.11 | 1.34 | O=C1C(=O)c2ccccc2C2=C1SCC1(CCN(C(=O)Nc3ccc(Cl)c(Cl)c3)CC1)O2 [Compound 87, N-(3,4-dichlorophenyl)-5,6-dioxo-5,6-dihydro-1′H-spiro[naphtho[1,2-b][1,4]oxathiine-2,4′-piperidine]-1′-carboxamide] | 30.5 | 10.0
13.3 | 1.49 | 4.33 | 2.14 | 1.85 | CN(C)c1ccc(NC(=O)N2CCC3(CC2)CSC2=C(O3)c3ccccc3C(=O)C2=O)cc1 [Compound 88, N-[4-(dimethylamino)phenyl]-5,6-dioxo-5,6-dihydro-1′H-spiro[naphtho[1,2-b][1,4]oxathiine-2,4′-piperidine]-1′-carboxamide] | 6.08 | 4.1
10.2 | 1.6 | 2.87 | 1.45 | 1.35 | Cc1ccc(NC(=O)N2CCC3(CC2)CSC2=C(O3)c3ccccc3C(=O)C2=O)cn1 [Compound 91, N-(6-methylpyridin-3-yl)-5,6-dioxo-5,6-dihydro-1′H-spiro[naphtho[1,2-b][1,4]oxathiine-2,4′-piperidine]-1′-carboxamide] | 9 | 5.6
31 | 4.01 | 9.11 | 4.54 | 4.29 | O=C1C(=O)c2ccccc2C2=C1SCC1(CCN(C(=O)Oc3ccccc3)CC1)O2 [Compound 92, phenyl 5,6-dioxo-5,6-dihydro-1′H-spiro[naphtho[1,2-b][1,4]oxathiine-2,4′-piperidine]-1′-carboxylate] | 13.1 | 3.3
4.87 | 1.68 | 4.25 | 2.46 | 3.55 | CC(C)COC(=O)N1CCC2(CC1)CSC1=C(O2)c2ccccc2C(=O)C1=O [Compound 93, isobutyl 5,6-dioxo-5,6-dihydro-1′H-spiro[naphtho[1,2-b][1,4]oxathiine-2,4′-piperidine]-1′-carboxylate] | 10.8 | 6.4
